Laboratory results reported in patent US20210032257A1, “(E)-1-(4-(DIMETHYLAMINO)BUT-2-ENOYL)PYRROLIDIN-3-YL 4-((3-ISOPROPYL-5-METHYLPYRAZOLO[1,5-A]PYRIMIDIN-7-YL)AMINO)PIPERIDINE-1-CARBOXYLATE FOR INHIBITING CDK7” (Eli Lilly and Company, priority 2017, published 2021).

Experiments:
Assay in all cases: Biomarker study proliferation (CellTiter-Glo)
Type in all cases: cell-based
UACC893 = system: UACC893
Experimental: (§1) Cancer cell lines are profiled to evaluate the anti-proliferative activity of a test compound in-vitro. Mutation, copy number and gene expression information of ARID1A, KMT2C, KMT2D and/or RB1 genes across cancer cell lines is obtained from COSMIC database (cancer.sanger.ac.uk) and cBioportal (http://www.cbioportal.org/). Cells are cultured in growth medium and plated into a 96-well plate in 100 μL/well growth medium at 5000 cells/well then incubated at 37° C., 5% CO2 overnight. Cells are cultured using supplier recommended media and conditions well known in the art, for example with RPMI 1640 with or without HEPES & L-Glutamine (Thermo SH30255.01) and 1 mM Sodium Pyruvate, and 10% FBS(Gibco cat #10082). The 1000× intermediate dilution plate is prepared by making a 10 mM working solution of a test sample in DMSO and performing 1:3 dilutions in DMSO for 10 points. The 10× dosing plate is prepared by adding 2 μL from the 1000× intermediate dilution plate to 198 μL of OPTIMEM®+10% FBS and mixing well. The cell plate is then treated by adding 11 μL from the 10× dosing plate into the 100 μL/well cell plate for a 1× final concentration. Staurosporine is used as a maximum growth inhibition control at a final concentration of 5 μM. The cell plate is incubated for 7 days at 37° C., 5% CO2. Seven days after treatment, Cell Titer-Glo® (Promega cat #G7571) assay buffer and substrate are removed from −20° C. and allowed to equilibrate to RT. Assay buffer is added to the substrate and swirled gently to mix. The CELL TITER-GLO® reagent (100 μL/well) is added to the cell plate and incubated at RT for 15 minutes. After 15 minutes, luminescence is read using a plate reader. Data is analyzed in Excel and graphed in GraphPad Prism. Statistical analysis and p value is calculated using Mann-Whitney nonparameteric t tests using GraphPad Prism.
(§2) Anti-proliferative effects of a test compound are categorized as insensitive (IC50≥1 μM), cytostatic (IC50<1 μM and % inhibition <70%) or cytotoxic (IC50<1 μM and % inhibition ≥70%).

NCIH2122 = system: NCIH2122
Experimental: as §1, §2

KP4 = system: KP4
Experimental: as §1, §2

UMUC3 = system: UMUC3
Experimental: as §1, §2

COLO201 = system: COLO201
Experimental: as §1, §2

KYSE70 = system: KYSE70
Experimental: as §1, §2

NCIH226 = system: NCIH226
Experimental: as §1, §2

MDST8 = system: MDST8
Experimental: as §1, §2

DMS114 = system: DMS114
Experimental: as §1, §2

NCIH146 = system: NCIH146
Experimental: as §1, §2

MDAMB157 = system: MDAMB157
Experimental: as §1, §2

NCIH358 = system: NCIH358
Experimental: as §1, §2

OCUM1 = system: OCUM1
Experimental: as §1, §2

NCIH2030 = system: NCIH2030
Experimental: as §1, §2

HOS = system: HOS
Experimental: as §1, §2

SNU423 = system: SNU423
Experimental: as §1, §2

HT = system: HT
Experimental: as §1, §2

K562 = system: K562
Experimental: as §1, §2

[1] = Homo sapiens, 168 h, read-out: Anti-proliferation effect IC50

Cc1cc(NC2CCN(C(=O)O[C@H]3CCN(C(=O)/C=C/CN(C)C)C3)CC2)n2ncc(C(C)C)c2n1 [Example 1, [(3S)-1-[(E)-4-(dimethylamino)but-2-enoyl]pyrrolidin-3-yl] 4-[(3-isopropyl-5-methyl-pyrazolo[1,5-a]pyrimidin-7-yl)amino]piperidine-1-carboxylate]
IC50 (UACC893; Homo sapiens, UACC-893, 168 h, read-out: Anti-proliferation effect IC50): 4150 nM
Anti-proliferation effect % Inh. (UACC893; UACC893, BREAST, 7 days): −51%
Anti-proliferation effect Outcome (UACC893; UACC893, BREAST, 7 days): Insensitive (insensitive (IC50≥1 μM))
IC50 (NCIH2122; Homo sapiens, NCI-H2122, 168 h, read-out: Anti-proliferation effect IC50): 78 nM
Anti-proliferation effect % Inh. (NCIH2122; NCIH2122, LUNG, 7 days): 85%
Anti-proliferation effect Outcome (NCIH2122; NCIH2122, LUNG, 7 days): Cytotoxic (cytotoxic (IC50<1 μM and % inhibition ≥70%))
IC50 (KP4; Homo sapiens, KP-4, 168 h, read-out: Anti-proliferation effect IC50): 36 nM
Anti-proliferation effect % Inh. (KP4; KP4, PANCREAS, 7 days): 65%
Anti-proliferation effect Outcome (KP4; KP4, PANCREAS, 7 days): Cytostatic (cytostatic (IC50<1 μM and % inhibition <70%))
IC50 (UMUC3; Homo sapiens, UMUC3, 168 h, read-out: Anti-proliferation effect IC50): 161 nM
Anti-proliferation effect % Inh. (UMUC3; UMUC3, URINARY, 7 days): 70%
Anti-proliferation effect Outcome (UMUC3; UMUC3, URINARY, 7 days): Cytotoxic (cytotoxic (IC50<1 μM and % inhibition ≥70%))
Anti-proliferation effect % Inh. (COLO201; COLO201, INTESTINE, 7 days): 61%
Anti-proliferation effect Outcome (COLO201; COLO201, INTESTINE, 7 days): Cytostatic (cytostatic (IC50<1 μM and % inhibition <70%))
IC50 (COLO201; Homo sapiens, COLO 201, 168 h, read-out: Anti-proliferation effect IC50): 123 nM
IC50 (KYSE70; Homo sapiens, KYSE-70, 168 h, read-out: Anti-proliferation effect IC50): 126 nM
Anti-proliferation effect % Inh. (KYSE70; KYSE70, OESOPHAGUS, 7 days): 70%
Anti-proliferation effect Outcome (KYSE70; KYSE70, OESOPHAGUS, 7 days): Cytotoxic (cytotoxic (IC50<1 μM and % inhibition ≥70%))
IC50 (NCIH226; Homo sapiens, NCI-H226, 168 h, read-out: Anti-proliferation effect IC50): 1200 nM
Anti-proliferation effect % Inh. (NCIH226; NCIH226, LUNG, 7 days): 43%
Anti-proliferation effect Outcome (NCIH226; NCIH226, LUNG, 7 days): Insensitive (insensitive (IC50≥1 μM))
IC50 (MDST8; MDST8, 168 h, read-out: Anti-proliferation effect IC50): 49 nM
Anti-proliferation effect % Inh. (MDST8; MDST8, INTESTINE, 7 days): 88%
Anti-proliferation effect Outcome (MDST8; MDST8, INTESTINE, 7 days): Cytotoxic (cytotoxic (IC50<1 μM and % inhibition ≥70%))
Anti-proliferation effect % Inh. (DMS114; DMS114, LUNG, 7 days): 65%
Anti-proliferation effect Outcome (DMS114; DMS114, LUNG, 7 days): Cytostatic (cytostatic (IC50<1 μM and % inhibition <70%))
IC50 (DMS114; Homo sapiens, DMS-114, 168 h, read-out: Anti-proliferation effect IC50): 14 nM
IC50 (NCIH146; Homo sapiens, NCI-H146, 168 h, read-out: Anti-proliferation effect IC50): 30 nM
Anti-proliferation effect % Inh. (NCIH146; NCIH146, LUNG, 7 days): 77%
Anti-proliferation effect Outcome (NCIH146; NCIH146, LUNG, 7 days): Cytotoxic (cytotoxic (IC50<1 μM and % inhibition ≥70%))
IC50 (MDAMB157; Homo sapiens, MDA-MB-157, 168 h, read-out: Anti-proliferation effect IC50): 866 nM
Anti-proliferation effect % Inh. (MDAMB157; MDAMB157, BREAST, 7 days): 39%
Anti-proliferation effect Outcome (MDAMB157; MDAMB157, BREAST, 7 days): Cytostatic (cytostatic (IC50<1 μM and % inhibition <70%))
IC50 (NCIH358; Homo sapiens, NCI-H358, 168 h, read-out: Anti-proliferation effect IC50): 42 nM
Anti-proliferation effect % Inh. (NCIH358; NCIH358, LUNG, 7 days): 93%
Anti-proliferation effect Outcome (NCIH358; NCIH358, LUNG, 7 days): Cytotoxic (cytotoxic (IC50<1 μM and % inhibition ≥70%))
IC50 (OCUM1; OCUM1, 168 h, read-out: Anti-proliferation effect IC50): 27 nM
Anti-proliferation effect % Inh. (OCUM1; OCUM1, STOMACH, 7 days): 82%
Anti-proliferation effect Outcome (OCUM1; OCUM1, STOMACH, 7 days): Cytotoxic (cytotoxic (IC50<1 μM and % inhibition ≥70%))
IC50 (NCIH2030; Homo sapiens, NCI-H2030, 168 h, read-out: Anti-proliferation effect IC50): 5370 nM
Anti-proliferation effect % Inh. (NCIH2030; NCIH2030, LUNG, 7 days): 9%
Anti-proliferation effect Outcome (NCIH2030; NCIH2030, LUNG, 7 days): Insensitive (insensitive (IC50≥1 μM))
Anti-proliferation effect % Inh. (HOS; BONE, 7 days): 72%
Anti-proliferation effect Outcome (HOS; BONE, 7 days): Cytotoxic (cytotoxic (IC50<1 μM and % inhibition ≥70%))
IC50 (HOS; [1]): 90 nM
IC50 (SNU423; Homo sapiens, SNU-423, 168 h, read-out: Anti-proliferation effect IC50): > 10000 nM
Anti-proliferation effect % Inh. (SNU423; SNU423, LIVER, 7 days): 40%
Anti-proliferation effect Outcome (SNU423; SNU423, LIVER, 7 days): Insensitive (insensitive (IC50≥1 μM))
Anti-proliferation effect % Inh. (HT; BLOOD, 7 days): 64%
Anti-proliferation effect Outcome (HT; BLOOD, 7 days): Cytostatic (cytostatic (IC50<1 μM and % inhibition <70%))
IC50 (HT; [1]): 131 nM
IC50 (K562; Homo sapiens, K562, 168 h, read-out: Anti-proliferation effect IC50): > 10000 nM
Anti-proliferation effect % Inh. (K562; K562, BLOOD, 7 days): −191%
Anti-proliferation effect Outcome (K562; K562, BLOOD, 7 days): Insensitive (insensitive (IC50≥1 μM))
